Assays:
[1] = test system: Conyza bonariensis low herbicide requiring biotype; assay: Whole plant spray, visual rating; format: in vivo
From the text: (§1) Seeds of Conyza bonariensis were germinated and plants cultivated as outlined in Example 1. Other species were germinated in a similar mixture and treated at 10 days.
(§2) The commercial fungicides, maneb [manganese ethylene-bis(dithiocarbamate) (polymeric)] and zineb [zinc ethylene-bis (dithiocarbamate) (polymeric)] were used, they have similar structures and effects as DDC, but are blocked and act as chelate controls […] to clarify that a synergism would be due to the chelating effect of diethyldithiocarbamate. […] They could not chelate copper due to their being blocked.
(§3) ^a visual ratings (scored 1 day after treatment): 0 no damage to
(§4) slight burn; 1 moderate burn (may regenerate); 2 severe burn (will die)
(§5) Similarly, both the paraquat resistant and sensitive biotypes of Conyza bonariensis were treated with two other oxidant generating herbicides. Atrazine (of the triazine group) is the most widely used oxidant generating herbicides in agriculture. We used various dilutions of a commercial wettable powder (Atranex 50WP-Agan Chemicals) to which we added 0.5% DDC. The effects were scored 24 h later. […] We also tested to see whether acifluorfen, a nitro diphenyl ether herbicide would be synergized. It is generally agreed that light and oxygen are required for its action via oxidant damage. We sprayed a commercial formulation of acifluorfen (Blazer, Rohm and Haas) to which were added 0.25% Tween-20 detergent, with and without DDC. The effects were scored 24 h later.

[2] = test system: Conyza bonariensis high herbicide requiring biotype; assay: Whole plant spray, visual rating; format: in vivo
From the text: as §1, §2, §3, §4, §5

[3] = test system: isolated Asparagus sprengeri cells; assay: Chlorophyll loss in isolated cells (synergism at the cellular level); format: cell-based; conditions: for % of control chlorophyll: low light 305 μEin m^-2 s^-1
Protocol: Isolated cells offer an excellent rapid method of screening for phytotoxicity using a large number of potential chelators and synergists. Asparagus sprengeri cells were isolated from cladophylls of field grown plants using the procedure of Colman et al. (Can. J. Botany 57 1505, (1979)) except that the isolation, washing and culture buffer was 50 mM HEPES brought to pH 7.2 with KOH. The cladophylls were surface sterilized using 80% aqueous ethanol. After three centrifugations to remove broken cells, the cells were diluted to 10% packed volume and 0.75 ml were placed in each well of cluster dishes. The potential synergists in this example 0.02% w/v final concentration diethyldithiocarbamate (DDC) and an oxime of 4-octyl-2-acetyl-phenol (U.S. Pat. No. 4,215,219) which complex primarily with copper and di-2-ethylhexyl-phosphoric acid which complexes primarily with zinc (Flett, Chem and Ind. 17 706, (1977)) was placed with the herbicides atrazine and paraquat. All additions were made at 100 fold the final concentration of herbicide and synergist. Paraquat was dissolved in water and atrazine in methanol. The cluster dishes were incubated on a reciprocal shaker with a clear plastic bottom and illuminated from top and bottom with fluorescent lights emitting 135 μEin.m^-2 s^-1 (top) and 170 μEin.m^-2 s^-1 (bottom). The cells were kept mixed by the shaker and incubation was at room temperature. Incubation was stopped when there was visually obvious loss of chlorophyll due to treatments in a given experiment. The cells were removed to glass centrifugation tubes, centrifuged and the supernatant removed. One ml of 80% aqueous acetone was added to extract chlorophyll, the debris were sedimented by centrifugation and chlorophyll was spectrophotometrically determined at 645 and 663 nm according to Arnon (Plant Physiology 24 1, (1949)). […] In another experiment, a larger variety of chelating synergists and oxidant generating herbicides were used, and light was given at a much higher intensity 1000 μEin m^-2 s^-1 to better approach natural sunlight which is at 1200-1500 […].
Paraquat toxicity was measured 24 h after treatment and atrazine toxicity was measured 40 h after treatment.
Paraquat toxicity was measured 14 h after treatment.

[4] = test system: Sinapsis arvense; assay: Whole plant spray, visual rating; format: in vivo; conditions: paraquat 30 μM spray to run-off, DDC 0.75% W/V where added, scored 1 day after treatment
From the text: as §1, §3, §4

[5] = test system: Stellaria media; assay: Whole plant spray, visual rating; format: in vivo; conditions: paraquat 30 μM spray to run-off, DDC 0.75% W/V where added, scored 1 day after treatment
From the text: as §1, §3, §4

[6] = test system: Beans; assay: Whole plant spray, visual rating; format: in vivo; conditions: paraquat 100 μM spray to run-off, DDC 0.75% W/V where added, scored 1 day after treatment
From the text: as §1, §3, §4

[7] = test system: Biotypes of certain weed species; conditions: cited from earlier work

| Compound | visual ratings ([1]; atrazine 0 μM, DDC 0.5% alone, scored one day after treatment) | visual ratings ([2]; atrazine 0 μM, DDC 0.5% alone, high herbicide requiring biotype, scored one day after treatment) | % of control chlorophyll ([3]; no herbicide, DDC 0.02% alone, atrazine series, 40 h) | % of control chlorophyll ([3]; no herbicide, DDC 0.02% alone, paraquat series, 24 h) | visual rating ([1]; paraquat 30 μM spray to run-off, DDC 0.75% W/V where added, scored 1 day after treatment) | effect of paraquat spray ([2]; 1 mM spray of paraquat, paraquat resistant biotype) | visual rating ([2]; paraquat 1000 μM spray to run-off, DDC 0.75% W/V where added, high herbicide requiring biotype, scored 1 day after treatment) | visual rating [4] | visual rating [5] | visual rating [6] | rate that does not kill resistant biotypes ([7]; biotypes that have evolved resistance to paraquat) | rate that controls the sensitive biotype ([7]; sensitive biotype of the same species) | chlorophyll remaining - % of control ([3]; isolated cladophyll cells, 840 min) | chlorophyll remaining - % of control ([3]; paraquat 10 μM, Tetraethylene-pentamine 0.025% where added, 14 h, 1000 μEin m^-2 s^-1) | chlorophyll remaining - % of control ([3]; paraquat 20 μM, 4-Octyl-2-acetyl-phenol oxime 0.125% where added, 14 h, 1000 μEin m^-2 s^-1) | chlorophyll remaining - % of control ([3]; paraquat 20 μM, Pyridine-2,6-dicarboxylic acid 0.005% where added, 14 h, 1000 μEin m^-2 s^-1) | chlorophyll remaining - % of control ([3]; paraquat 20 μM, di-2-ethyl-hexyl-phosphoric acid 0.001% where added, 14 h, 1000 μEin m^-2 s^-1) | % of control chlorophyll ([3]; paraquat 10^-6, DDC 0.02% where added, 24 h, 1 µM) |
| --- | --- | --- | --- | --- | --- | --- | --- | --- | --- | --- | --- | --- | --- | --- | --- | --- | --- | --- |
| CCN(CC)C(=S)[S-].[Na+] [DDC, Sodium diethyldithiocarbamate] | 1.6 | 0.6 | 120 % of control | 116 % of control | – | – | – | – | – | – | – | – | – | – | – | – | – | – |
| C[n+]1ccc(-c2cc[n+](C)cc2)cc1 [paraquat, 1,1'-dimethyl-4-4'bipyridium ion] | – | – | – | – | 1.8 | hardly affected | 0.9 | 0.5 | 0.5 | 1.5 | > 16 kg/ha | 1 kg/ha | 56 % of control | 89 % of control | 74 % of control | 9 % of control | 72 % of control | 107 % of control |

From patent US5219825A, “Synergistic herbicidal compositions comprising herbicides which generate toxic oxygen radicals and chelating agents which inhibit their detoxification” (Yeda Research and Development Co., Ltd., priority 1986, dated 1993)
